Experimental data published in BigSolDB 2.1.

O=C(O)c1ccc(C(=O)O)cc1
solubility (mole fraction)
Settings	in 2-ethylhexanol	in DMAc	in DMF	in DMSO	in NMP	in pyridine
313.15 K	0.000293	0.0155	0.0325	0.0964	0.0558	0.0767
318.15 K	0.000335	0.0199	0.0337	0.0989	0.0646	0.0767
323.15 K	0.000377	0.0243	0.035	0.102	0.0736	0.0766
328.15 K	0.000429	0.0304	0.0361	0.104	0.0838	0.0768
333.15 K	0.000482	0.0365	0.0372	0.107	0.094	0.0769
338.15 K	0.000559	0.0453	0.0383	0.108	0.0952	0.077
343.15 K	0.000636	0.0541	0.0394	0.11	0.0963	0.077
348.15 K	0.000724	0.065	0.0412	0.113	0.0974	0.0774
353.15 K	0.000812	0.076	0.0429	0.116	0.0985	0.0778
358.15 K	0.000915	0.0823	0.0442	0.118	0.0999	0.0783
363.15 K	0.00102	0.0886	0.0455	0.121	0.101	0.0787
